Like-named read-outs stand apart in the source and are kept apart here. Each block holds one molecule with its values, some of them ahead of it.
What was measured:
cholesterol esterase [1] = conditions: Bosner et al., 1988; cited from earlier work
[2] = target: T1, Human pancreatic cholesterol esterase (Homo sapiens, UniProt P19835); experiment: Inhibition of human pancreatic cholesterol esterase, cholesteryl 14C-oleate hydrolysis; assay type: biochemical
T1 construct: Human pancreatic cholesterol esterase was purified as described by Bosner et al; from tissue; host or cells: human pancreas (purified to homogeneity)
T1 sequence (P19835 21-753): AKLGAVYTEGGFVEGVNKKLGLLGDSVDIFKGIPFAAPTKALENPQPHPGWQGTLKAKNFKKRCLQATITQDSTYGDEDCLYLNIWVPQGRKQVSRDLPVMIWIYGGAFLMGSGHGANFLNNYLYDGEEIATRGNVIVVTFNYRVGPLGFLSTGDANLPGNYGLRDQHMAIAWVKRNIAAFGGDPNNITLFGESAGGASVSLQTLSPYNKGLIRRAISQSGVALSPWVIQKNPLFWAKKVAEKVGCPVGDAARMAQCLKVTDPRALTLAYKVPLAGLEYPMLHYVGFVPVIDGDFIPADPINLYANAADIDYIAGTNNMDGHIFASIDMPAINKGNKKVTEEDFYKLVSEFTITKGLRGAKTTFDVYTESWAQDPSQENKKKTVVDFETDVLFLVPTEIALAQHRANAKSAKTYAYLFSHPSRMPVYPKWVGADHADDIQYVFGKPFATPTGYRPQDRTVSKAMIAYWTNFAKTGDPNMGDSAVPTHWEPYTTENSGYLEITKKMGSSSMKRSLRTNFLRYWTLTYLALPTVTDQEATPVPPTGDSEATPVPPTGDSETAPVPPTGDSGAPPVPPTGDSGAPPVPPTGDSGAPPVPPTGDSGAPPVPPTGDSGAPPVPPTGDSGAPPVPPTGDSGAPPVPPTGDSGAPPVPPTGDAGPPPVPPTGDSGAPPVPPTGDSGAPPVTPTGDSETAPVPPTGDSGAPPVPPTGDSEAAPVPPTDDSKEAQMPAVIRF

[3] = target: human 100 kDa cholesterol esterase; experiment: Inhibition of triolein hydrolysis by human 100 kDa cholesterol esterase; assay type: biochemical; conditions: Table 3; triolein as substrate
Description: Alginic acid from Macrocystis pyrifera (kelp) was dissolved in water at a concentration of 1 mg/ml. This stock solution was used to prepare various polysaccharide concentrations down to 10^-5 mg/ml. Human pancreatic cholesterol esterase was purified as described by Bosner et al., Proc. Nat'l, Acad, Sci., 85, 7438 (1988). To measure cholesterol esterase inhibition by alginic acid, 50 μl of cholesterol esterase (10 μg/ml), 75 μl of phosphatidylcholine vesicles containing cholesteryl ^14 C-oleate (1 mM 2,000 CPM/nmole), 25 μl of 100 mM taurocholate, 120 μl of 150 mM Tris, pH 7.5 and 30 μl of test alginic acid solution were incubated at 37° C. for fifteen minutes. The assay was quenched by placing the reaction vessels in a 4° C. ice bath and by adding 0.6 ml of 0.3 N NaOH and 3 ml of benzene/chloroform/methanol (1.0/1.2/0.5). The quenched reactions were vortexed for 30 seconds, centrifuged at 3,000 g for 15 minutes and 1 ml of the upper aqueous phase was added to 7 ml of Aquasol-2 (DuPont) with 0.025 ml of 6 N HCl. These mixtures were vortexed for one minute and counted for ^14 C-oleate. The counts were compared to a sample which contained cholesterol esterase but no alginic acid to determine the percentage of inhibition.
(The same assay procedure was used as described in Part I, only triolein was used instead of cholesteryl oleate.) As shown in the table below, the IC50 for inhibition of triolein hydrolysis is nearly the same as that for cholesteryl oleate hydrolysis.

cholesterol esterase [4] = experiment: Inhibition of cholesterol oleate hydrolysis by cow pancreatic cholesterol esterase; assay type: biochemical; conditions: enzyme from the cow
Text: (§1) These sulfated polysaccharides are also inhibitors of animal pancreatic cholesterol esterase.

cholesterol esterase [5] = experiment: Inhibition of cholesterol oleate hydrolysis by pig pancreatic cholesterol esterase; assay type: biochemical; conditions: enzyme from pig pancreas
Text: as §1

cholesterol esterase [6] = experiment: Inhibition of cholesterol oleate hydrolysis by rat pancreatic cholesterol esterase; assay type: biochemical; conditions: enzyme from rat pancreas
Text: as §1

cholesterol esterase [7] = experiment: Inhibition of cholesterol oleate hydrolysis by rabbit pancreatic cholesterol esterase; assay type: biochemical; conditions: enzyme from rabbit pancreas
Text: as §1

[8] = system: Colonic adenocarcinoma cells (CaCo-2); experiment: Cholesterol esterase catalyzed cholesterol uptake by CaCo-2 cells; assay type: cell-based; conditions: CaCo-2, bovine 72 kDa cholesterol esterase
Description: Colonic adenocarcinoma cells (CaCo-2, American Type Culture Collection) were grown to a density of 2×10^6 cells on […] coverslips in Dulbecco's Moditied Eagle's Medium containing 10% (v/v) lipoprotein depleted serum. The coverslips were washed with phosphate buffered saline (PBS) and transferred to 35 mm wells containing 1.0 ml PBS, 2 mM taurocholate and 1% bovine serum albumin. The cells were then incubated at 37° C. with 0.01 uCi of ^3 H cholesterol and 0.01 uCi of ^14 C-cholesteryl oleate, which were embedded in phosphatidylcholine vesicles. The control wells received no cholesterol esterase while the experimental set received bovine 72 kDa cholesterol esterase. At various incubation times the coverslips were removed, washed three times with PBS, and the cells were collected by scraping and washing with 250 mM tris glycine buffer (pH 8.8) containing 0.1% SDS. The cells were collected by centrifugation and the pellet was heated at 100° C. for five minutes and then sonicated for ten minutes. The uptake of cholesterol, either from free sterol or from cholesteryl oleate, was determined by scintillation counting for ^3 H or ^14 C, respectively.

[9] = In vivo cholesterol uptake in cholesteryl oleate fed rabbit, nasogastric dosing
Description: Inhibition of cholesterol uptake from either free cholesterol or from cholesteryl oleate was examined in vivo using cellulose sulfate. A rabbit which had been fed cholesteryl oleate for six weeks was fasted for twelve hours and a nasogastric cube was inserted into its stomach. Five ml of a cellulose sulfate solution (100 mg/ml) in Tris buffer were added followed by 10 ml of 20 uCi of ^3 H cholesterol incorporated in phosphatidylcholine vesicles and 10 ml of 20 uCi of ^14 C cholesteryl oleate. The nasogastric tube was then flushed with an additional 5 ml of cellulose sulfate solution (100 mg/ml). After the tube was removed, blood was drawn from an ear vein as a function of time and 100 μl of plasma was counted for ^14 C and ^3 H. As shown, cellulose sulfate inhibited by 85% the uptake of either free cholesterol or cholesterol derived from cholesteryl oleate (FIG. 5).

[10] = Serum radiolabeled cholesterol in rabbit fed cellulose sulfate chow; assay type: in vivo, New Zealand White rabbit; conditions: chow with 0.5% cellulose sulfate
Text: A New Zealand White rabbit was maintained on regular rabbit chow. Two days before the experiment began the animal was fed chow to which cellulose sulfate had been added to give a final concentration of 0.5%. After 12 hrs. on regular chow then, the experiment began with the administration of ^14 C-cholesteryl oleate as described above. The animal was then allowed to eat and drink regular chow in a normal manner. Blood samples were withdrawn from an ear vein and the radiolabeled cholesterol measured by scintillation counting. […] In contrast, in the control animal, label appears only two hours after its administration.

cholesterol esterase [11] = experiment: Stability under baking conditions: cholesterol esterase inhibition by muffin supernatant; conditions: retention of inhibitory activity
Description: The sulfated polysaccharides described here retain their inhibitory activity for prolonged periods at elevated temperatures. […] For example, 109 mg of cellulose sulfate were added to 198 gm (7 oz) of corn muffin mix (Gold Medal,) and the solid ingredients were thoroughly mixed together. After the addition of one egg and one third cup milk, the muffin mix was stirred fifteen times. The mixture was poured into nine muffin tins and baked for fifteen minutes in a 400° oven. The next day one muffin was broken up, added to 100 ml of water and allowed to stand for fifteen minutes. The mixture was centrifuged and the clear supernatant was assayed for the presence of cholesterol esterase inhibition. The IC50 of this solution was achieved when this solution was diluted 10^3 -10^4 times.

[12] = target: 52 kDa human pancreatic triglyceride lipage; conditions: literature; cited from earlier work
[13] = target: cholesterol esterase from rat; conditions: Borgstrom 1988; water soluble artificial and colorimetric substrates; cited from earlier work
[14] = Table 3, cholesteryl oleate as substrate, read-out: IC50 (nM) Cholesteryl Oleate
[15] = cholesteryl oleate hydrolysis, molar value based on assumed polymer molecular weight, read-out: IC50

Molecule: chondroitan sulfate
interaction with cholesterol esterase (cholesterol esterase [1]): does not interact with cholesterol esterase

IC50 ([2]; Table 2, read-out: IC50): 0.16 nM
IC50 [2, 14]: 0.3 nM
IC50 [2, 15]: 0.3 nM
IC50 [3]: 0.35 nM
Molecule: Chitin Sulfate

IC50 ([2]; Table 2, read-out: IC50): 0.16 nM
IC50 [2, 14]: 0.3 nM
IC50 [2, 15]: 0.3 nM
IC50 [3]: 0.85 nM
Molecule: Chitosan Sulfate

IC50 ([2]; Table 1, read-out: IC50): 20 nM
Enhancement Factor ([2]; Table 1, relative to alginic acid): 1.0
IC50 [2, 14]: 20 nM
IC50 ([2]; cholesteryl oleate hydrolysis): 4 µg/mL
IC50 [2, 15]: 20 nM
IC50 [3]: 42 nM
Molecule: Alginic acid [reference compound]

IC50 ([2]; Table 2, read-out: IC50): 0.02 nM
IC50 [2, 14]: 0.02 nM
IC50 [2, 15]: 0.02 nM
IC50 [3]: 0.06 nM
Ki (cholesterol esterase [4]): 100 nM
inhibition of cholesterol oleate hydrolysis (cholesterol esterase [5]): inhibits
inhibition of cholesterol oleate hydrolysis (cholesterol esterase [6]): inhibits
inhibition of cholesterol oleate hydrolysis (cholesterol esterase [7]): inhibits
stability at elevated temperatures / baking conditions (cholesterol esterase [11]): stable under baking conditions
Molecule: Cellulose Sulfate
uptake of cholesterol derived from cholesteryl oleate by the cells ([8]; FIG. 4a): markedly inhibits cholesterol uptake
uptake of free cholesterol by the cells ([8]; FIG. 4b): markedly inhibits cholesterol uptake
inhibition of uptake of free cholesterol ([9]; rabbit, nasogastric cellulose sulfate 100 mg/ml, 3H cholesterol in plasma, FIG. 5): 85%
inhibition of uptake of cholesterol derived from cholesteryl oleate ([9]; rabbit, nasogastric cellulose sulfate 100 mg/ml, 14C in plasma, FIG. 5): 85%
absorption of free cholesterol ([9]; rabbits): decreases absorption of free cholesterol
decrease of cholesterol absorption ([9]; rabbits fed cholesterol oleate): over 70%
time until cholesterol appears in serum after administration of the label [10]: four
reduction of level of serum cholesterol compared to control rabbit ([10]; 14C-cholesteryl oleate label, FIG. 7): 50%

Molecule: CCCCCCCCCCC[C@@H](C[C@@H]1OC(=O)[C@H]1CCCCCC)OC(=O)[C@H](CC(C)C)NC=O [tetrahydrolipstatin]
Ki [12]: 100 nM
Ki [13]: 100000 nM

inhibition of cholesterol esterase (in words) ([2]; hydrolysis of cholesterol esters): does not inhibit cholesterol esterase
Molecule: pectin [native, unsulfated pectin, reference compound]
